Experimental data published in patent US20240391912A1, “MORPHIC FORMS OF CFT7455 AND METHODS OF MANUFACTURE THEREOF” (C4 THERAPEUTICS, INC., priority 2022, published 2024).
In brackets after ≈: the same amount, converted by molar mass.

Columns and labels:
[1] = Crystallization of Compound 5 from hot saturated solutions by fast cooling; assay type: physicochemical; conditions: fast cooling to about 0° C.
Experimental: Based on approximate solubility results, about 30 mg of Compound 5 Form V was dissolved in a minimal amount of selected solvent at 50° C. […] No precipitate came out by fast cooling.

[2] = Approximate solubility of Compound 5 Form V at 25° C. (visual observation / HPLC); assay type: physicochemical; conditions: for solubility: solubilized at about 25° C.
Experimental: About 5 mg of Compound 5 Form V was weighed to an 8 mL glass vial. 100 μL aliquots of each solvent were added to dissolve the drug substance at 25° C. Vortex and sonication were applied to assist dissolution. The maximum volume of each solvent added is 1 mL. Approximate solubility was determined by visual observation.
For low solubility samples: Aliquots of selected solvent were added to 5 mg of Compound 5 create a suspension. The suspensions were kept at 25° C. for 24 hours. The suspension was taken out and centrifuged. To eliminate solvent effect, 50 μL or 100 μL of supernatant was added into a 2 mL glass vial and evaporated at ambient condition (22-25° C., 30-60% RH).

[3] = Approximate solubility of Compound 5 polymorphs in EtOH:DCM (v:v=1:4); assay type: physicochemical; conditions: EtOH:DCM (v:v = 1:4), 25° C.
Experimental: Four polymorphs (Form V, Form VI, Form VII and Form VIII) were weighed respectively and a suitable amount of solvent mixture EtOH:DCM (v:v=1:4) was added. The obtained samples were stirred at a rate of 400 rpm at 25° C.

[4] = Equilibration of Compound 5 Form V with solvents at 25° C. for 1 week (XRPD); assay type: physicochemical
Experimental: The obtained suspensions were centrifuged at 14,000 rpm. The solid parts (wet cakes) were investigated by XRPD.

[5] = Crystallization of Compound 5 by addition of anti-solvent; assay type: physicochemical
Experimental: The obtained solutions were filtered through a 0.45 μm syringe membrane filter. […] Precipitates were investigated by XRPD. For samples with different XRPD patterns, ^1H-NMR was performed.

[6] = Crystallization of Compound 5 at room temperature by fast evaporation; assay type: physicochemical
Experimental: Based on approximate solubility results, about 20 mg of Compound 5 Form V was dissolved in 1-6 mL of solvents. […] The solid residue was investigated by XRPD. For samples with different XRPD patterns, ^1H-NMR was performed.

[7] = Characterization of polymorphs and pseudo-polymorphs of Compound 5; assay type: physicochemical
[8] = test system: OCI-LY10 human DLBCL intracranial xenografts; experiment: OCI-LY10 human DLBCL intracranial xenograft study, survival
Experimental: Agents were tested in the OCI-LY10 human DLBCL intracranial model. […] Rituximab was administered from day 1 via i.v. once per week. Rituximab was dosed at 10 and 30 mg/kg. Individual mouse was euthanized once its body weight loss was over 20%.
The cells growing in an exponential growth phase were harvested and counted for tumor inoculation.
99 CB17 SCID mice were inoculated by intracranial injection with OCI-LY10 cells (1×10^6) for tumor development.
Tumor inoculation: Intraperitoneally injected avertin at dosage of 240 mg/kg to anaesthetize the CB17 SCID mice. Fixed the head of the anaesthetized mice to the brain solid positioner, sterilized the head skin with 70% alcohol. […] Punched a hole about 2 mm right of the anterior fontanel and 1 mm ahead the coronal on the skull with a 25 G needle. Cell suspensions were mixed and certain amount was sucked into the 5 μL injector slowly to avoid bubble formation. The cells were swapped around the needle with alcohol to avoid extracranial tumor genesis. The needle was stuck vertically into the formed hold and 5 μL of cell suspension containing 1×10^6 OCI-LY10 cells was slowly injected for over 1 minute. The injector was then held for another 1 minute and then pulled back to decrease the drainage of the cells suspension. The skin was closed with tweezers and then sewed. Meloxicam was then injected 30 min after the surgery at dosage of 5 mg/kg to relieve the pain. The animals were kept under monitoring until they were awake.
Animals were grouped for treatment on day 7 after tumor inoculation.
At the time of routine monitoring, the animals were daily checked for any effects of tumor growth and treatments on normal behavior such as mobility, food and water consumption (by looking only), body weight gain/loss (body weights were measured twice weekly), eye/hair matting and any other abnormal effect as stated in the protocol. Death and observed clinical signs were recorded on the basis of the numbers of animals within each subset.

[9] = target: T1, Aiolos (also known as IKZF3) (Homo sapiens, UniProt Q9UKT9); experiment: Aiolos degradation in PBMC of patients (mass spectrometry); assay type: in vivo; conditions: Patients 2, 4, 5; oral 50 μg/day or 25 μg/day; 4 hours, day 7, 14, 21 of cycle 1
T1 construct: total peripheral blood mononuclear cell (PBMC) population extracted from whole blood samples of Patient 2, Patient 4, and Patient 5; endogenous in cells; host or cells: peripheral blood mononuclear cells (PBMC) from whole blood of treated patients
T1 sequence (Q9UKT9 whole entry): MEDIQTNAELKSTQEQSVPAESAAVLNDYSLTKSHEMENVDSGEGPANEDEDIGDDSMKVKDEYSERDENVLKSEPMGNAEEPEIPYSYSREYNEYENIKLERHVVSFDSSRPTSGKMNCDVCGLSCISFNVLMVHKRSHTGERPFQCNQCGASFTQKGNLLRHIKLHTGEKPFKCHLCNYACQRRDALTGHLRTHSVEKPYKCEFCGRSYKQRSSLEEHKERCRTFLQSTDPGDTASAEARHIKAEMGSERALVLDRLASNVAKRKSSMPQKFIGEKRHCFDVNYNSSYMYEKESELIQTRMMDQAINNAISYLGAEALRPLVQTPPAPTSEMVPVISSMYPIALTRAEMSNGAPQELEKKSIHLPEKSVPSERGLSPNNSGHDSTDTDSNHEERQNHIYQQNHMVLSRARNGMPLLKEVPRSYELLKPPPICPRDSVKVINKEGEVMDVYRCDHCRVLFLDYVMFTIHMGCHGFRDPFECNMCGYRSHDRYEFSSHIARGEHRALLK
T1 sequence (Q96SW2 whole entry, further chain): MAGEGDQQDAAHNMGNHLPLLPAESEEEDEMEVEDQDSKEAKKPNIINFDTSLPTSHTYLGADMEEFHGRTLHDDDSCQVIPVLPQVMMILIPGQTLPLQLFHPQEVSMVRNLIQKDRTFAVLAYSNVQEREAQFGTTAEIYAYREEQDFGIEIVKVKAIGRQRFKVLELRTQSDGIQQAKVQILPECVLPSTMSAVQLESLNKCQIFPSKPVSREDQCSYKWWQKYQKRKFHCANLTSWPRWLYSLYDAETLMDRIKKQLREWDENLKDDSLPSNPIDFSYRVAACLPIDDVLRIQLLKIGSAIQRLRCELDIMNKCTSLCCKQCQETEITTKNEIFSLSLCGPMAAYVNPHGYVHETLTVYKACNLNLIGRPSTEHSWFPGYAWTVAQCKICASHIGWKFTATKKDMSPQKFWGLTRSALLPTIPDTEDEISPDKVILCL
T1 sequence (Q16531 whole entry partner): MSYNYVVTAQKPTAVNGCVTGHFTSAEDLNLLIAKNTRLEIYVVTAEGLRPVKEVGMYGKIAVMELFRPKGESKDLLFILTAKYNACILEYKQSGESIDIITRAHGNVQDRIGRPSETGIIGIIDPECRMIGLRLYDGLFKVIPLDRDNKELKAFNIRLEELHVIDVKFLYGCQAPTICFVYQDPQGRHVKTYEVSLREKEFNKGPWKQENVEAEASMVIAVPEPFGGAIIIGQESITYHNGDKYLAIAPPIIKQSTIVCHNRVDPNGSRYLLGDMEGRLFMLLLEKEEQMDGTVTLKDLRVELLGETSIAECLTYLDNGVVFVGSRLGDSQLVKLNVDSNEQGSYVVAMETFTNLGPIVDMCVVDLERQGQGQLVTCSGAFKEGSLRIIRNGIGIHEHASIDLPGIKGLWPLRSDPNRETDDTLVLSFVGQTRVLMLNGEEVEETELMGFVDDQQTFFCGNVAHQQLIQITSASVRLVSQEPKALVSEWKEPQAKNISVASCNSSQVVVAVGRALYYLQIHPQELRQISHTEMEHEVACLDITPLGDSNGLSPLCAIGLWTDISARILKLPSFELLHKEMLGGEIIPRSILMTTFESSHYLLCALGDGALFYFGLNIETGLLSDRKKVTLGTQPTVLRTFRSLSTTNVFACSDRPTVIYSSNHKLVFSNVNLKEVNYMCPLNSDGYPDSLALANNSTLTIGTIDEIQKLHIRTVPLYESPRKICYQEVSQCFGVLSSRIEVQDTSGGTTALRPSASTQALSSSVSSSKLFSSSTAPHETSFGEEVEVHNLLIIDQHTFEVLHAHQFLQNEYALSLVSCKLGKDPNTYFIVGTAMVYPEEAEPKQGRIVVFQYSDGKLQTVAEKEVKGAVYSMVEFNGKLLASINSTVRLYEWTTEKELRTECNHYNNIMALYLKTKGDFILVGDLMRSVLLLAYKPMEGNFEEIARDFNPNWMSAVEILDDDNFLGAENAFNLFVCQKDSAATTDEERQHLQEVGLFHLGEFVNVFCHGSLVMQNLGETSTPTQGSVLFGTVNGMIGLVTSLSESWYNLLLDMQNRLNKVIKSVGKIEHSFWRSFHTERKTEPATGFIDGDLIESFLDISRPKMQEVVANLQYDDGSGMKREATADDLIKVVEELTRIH
Experimental: (§1) Ikaros (also known as IKZF1) and Aiolos (also known as IKZF3) degradation was evaluated using mass spectrometry analysis of total peripheral blood mononuclear cell (PBMC) population extracted from whole blood samples of Patient 2, Patient 4, and Patient 5 taken on the first day of the first cycle (cycle 1, day 1 or C1D1) prior to treatment, 4 hours post Compound 1 treatment, and on day 7, day 14, and day 21 of the treatment cycle.

[10] = target: T2, Ikaros (also known as IKZF1) (Homo sapiens, UniProt Q13422+Q96SW2); experiment: Ikaros degradation in PBMC of patients (mass spectrometry); assay type: in vivo; conditions: Patients 2, 4, 5; oral 50 μg/day or 25 μg/day; 4 hours, day 7, 14, 21 of cycle 1
T2 construct: total peripheral blood mononuclear cell (PBMC) population extracted from whole blood samples of Patient 2, Patient 4, and Patient 5; endogenous in cells; host or cells: peripheral blood mononuclear cells (PBMC) from whole blood of treated patients
T2 sequence (Q13422 whole entry): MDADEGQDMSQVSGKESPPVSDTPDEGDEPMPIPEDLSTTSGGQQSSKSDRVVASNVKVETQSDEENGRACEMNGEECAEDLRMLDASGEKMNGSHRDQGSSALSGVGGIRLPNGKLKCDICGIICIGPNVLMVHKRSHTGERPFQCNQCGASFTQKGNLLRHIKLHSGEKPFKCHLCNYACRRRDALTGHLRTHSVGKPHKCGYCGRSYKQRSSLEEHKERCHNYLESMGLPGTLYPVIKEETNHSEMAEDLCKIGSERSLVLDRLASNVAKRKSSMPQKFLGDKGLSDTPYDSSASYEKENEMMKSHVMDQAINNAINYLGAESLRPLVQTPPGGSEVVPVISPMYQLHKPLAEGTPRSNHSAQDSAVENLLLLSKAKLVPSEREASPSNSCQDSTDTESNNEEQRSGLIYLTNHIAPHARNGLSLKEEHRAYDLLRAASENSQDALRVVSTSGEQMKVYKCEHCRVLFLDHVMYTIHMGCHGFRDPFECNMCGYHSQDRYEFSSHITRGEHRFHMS
T2 sequence (Q96SW2 whole entry): as the sequence (Q96SW2 whole entry, further chain) above
T2 sequence (Q16531 whole entry partner): as the sequence (Q16531 whole entry partner) above
Experimental: as §1

[11] = test system: involved and uninvolved free light chains; experiment: Reduction in dFLC after single agent exposure to Compound 1; assay type: in vivo, human
Experimental: Using samples collecting in Example 24, the difference between involved free light chains and uninvolved free light changes, or dFLC, for Patients 1-3 were calculated using the following formula:
[Abnormal light chainbaseline−normal light chainbaseline]−[Abnormal light chainnadir−normal light chainnadir]/[Abnormal light chainbaseline−normal light chainbaseline]*100 dFLC equation: […]

[12] = Compound 1, 0.01 mg/kg, p.o., QD

For `O=C1CCC(N2C(=O)c3cccc4c(Cc5ccc(CN6CCOCC6)cc5)ccc2c34)C(=O)N1` (racemic) [Compound 5 Form V], the Comments ([1]; 1-Methyl-2-pyrrolidinone, 50° C.) was “Clear solution”, the Comments ([1]; Acetone, dissolved at 50° C.) was “Clear solution” and the Comments ([1]; Benzyl alcohol, 50° C.) was “Clear solution”. The Comments ([1]; Chloroform, 50° C.) was “Clear solution”, the Comments ([1]; DMF, 50° C.) was “Clear solution” and the Comments ([1]; Pyridine, 50° C.) was “Clear solution”. For the same compound, the Comments ([1]; THF, 50° C.) was “Clear solution”, the Comments ([1]; Trifluoroethanol, 50° C.) was “Clear solution” and the “Solubility (mg/mL) at 25° C.” value ([2]; 1,4-Dioxane, tested by HPLC) was 2.3 mg/mL (≈ 4.9 mM). The “Solubility (mg/mL) at 25° C.” value ([2]; 1-Methyl-2-pyrrolidinone, tested by observation) was >50 mg/mL, the “Solubility (mg/mL) at 25° C.” value ([2]; 2-Me THF, tested by HPLC) was 0.2 mg/mL (≈ 0.426 mM) and the “Solubility (mg/mL) at 25° C.” value ([2]; Acetic acid, tested by HPLC) was 5.5 mg/mL (≈ 11.7 mM). For the same compound, the “Solubility (mg/mL) at 25° C.” value ([2]; Acetone, tested by HPLC) was 3.3 mg/mL (≈ 7.03 mM), the “Solubility (mg/mL) at 25° C.” value ([2]; Acetonitrile, tested by HPLC) was 2.2 mg/mL (≈ 4.69 mM) and the “Solubility (mg/mL) at 25° C.” value ([2]; Anisole, tested by HPLC) was 1.1 mg/mL (≈ 2.34 mM). For the same compound, the “Solubility (mg/mL) at 25° C.” value ([2]; Benzyl alcohol, tested by observation) was 12 to 25 mg/mL, the “Solubility (mg/mL) at 25° C.” value ([2]; Chloroform, tested by observation) was 5 to 10 mg/mL and the “Solubility (mg/mL) at 25° C.” value ([2]; DMF, tested by observation) was 25 to 50 mg/mL. The “Solubility (mg/mL) at 25° C.” value ([2]; DMSO, tested by observation) was >50 mg/mL, the “Solubility (mg/mL) at 25° C.” value ([2]; Ethanol, tested by HPLC) was 0.6 mg/mL (≈ 1.28 mM) and the “Solubility (mg/mL) at 25° C.” value ([2]; Ethyl acetate, tested by HPLC) was 0.1 mg/mL (≈ 0.213 mM). For the same compound, the “Solubility (mg/mL) at 25° C.” value ([2]; MeOH/DCM (v:v = 1:1), tested by observation) was ~5 mg/mL (≈ 10.6 mM), the “Solubility (mg/mL) at 25° C.” value ([2]; Methanol, tested by HPLC) was 0.2 mg/mL (≈ 0.426 mM) and the “Solubility (mg/mL) at 25° C.” value ([2]; Propylene glycol methyl ether, tested by HPLC) was 2.3 mg/mL (≈ 4.9 mM). The “Solubility (mg/mL) at 25° C.” value ([2]; Propylene glycol, tested by HPLC) was 3.4 mg/mL (≈ 7.24 mM), the “Solubility (mg/mL) at 25° C.” value ([2]; Pyridine, tested by observation) was 25 to 50 mg/mL and the “Solubility (mg/mL) at 25° C.” value ([2]; THF, tested by HPLC) was 3.8 mg/mL (≈ 8.09 mM). For the same compound, the “Solubility (mg/mL) at 25° C.” value ([2]; Toluene, tested by HPLC) was 0.2 mg/mL (≈ 0.426 mM), the “Solubility (mg/mL) at 25° C.” value ([2]; Trifluoroethanol, tested by observation) was 25 to 50 mg/mL and the solubility ([2]; in 1-methyl-2-pyrrolidinone) was “at least 50 mg/mL”. The solubility ([2]; in DMSO) was “at least 50 mg/mL”, the “Approximate solubility (visual appearance)” value (shortened to “Approximate solubility”) ([3]; concentration 5 mg/mL) was “Suspension” and the “Approximate solubility” value ([3]; concentration 10 mg/mL, listed as Form V) was “Suspension”. The “Approximate solubility” value ([3]; concentration 20 mg/mL, listed as Form V) was “Suspension”, the XRPD ([4]; equilibration in Acetone) was “Form V” and the XRPD ([4]; equilibration in Benzyl alcohol) was “Form V”. The XRPD ([4]; equilibration in Chloroform) was “Form V”, the XRPD ([4]; equilibration in DMF) was “Form V” and the XRPD ([4]; equilibration in MeOH/DCM (v:v = 1:1)) was “Form V”. The XRPD ([4]; equilibration in Pyridine, wet cake) was “Form V”, the XRPD ([4]; equilibration in THF) was “Form V” and the XRPD ([4]; equilibration in Trifluoroethanol) was “Form V”. The “Additional analysis 1H-NMR: DMF” value ([5]; precipitate (Form VIII) from DMF(1.0 mL)/H2O (2.0 mL)) was 2 equiv. DMF, the XRPD ([5]; solvent DMF(1.0 mL), anti-solvent H2O (2.0 mL)) was “Form VIII” and the XRPD ([6]; fast evaporation from 1-Methyl-2-pyrrolidinone) was “Form VII”. The XRPD ([6]; fast evaporation from Benzyl alcohol) was “Form V”, the XRPD ([6]; fast evaporation from Chloroform) was “Amorphous form” and the XRPD ([6]; fast evaporation from DMSO, room temperature, dry nitrogen flow) was “Form VI”. The XRPD ([6]; fast evaporation from THF) was “Form V”, the “Additional analysis (appearance of residue)” value ([6]; fast evaporation from Trifluoroethanol) was “Oil” and the “Additional analysis 1H-NMR: DMSO” value ([6]; residue (Form VI) of fast evaporation from DMSO) was “^1H-NMR: 0.4 equiv. DMSO”. For the same compound, the “Additional analysis 1H-NMR: NMP” value ([6]; residue (Form VII) of fast evaporation from 1-Methyl-2-pyrrolidinone, 2 unknown peaks) was “^1H-NMR: 1.6 equiv. NMP;”, the “Residual solvent (by 1H-NMR): THF” value [7] was 0.4% residual of and the “Endothermic onset (by DSC)” value ([7]; DSC) was “onset at 220.0 °C”. The “Dehydration (by DSC)” value ([7]; DSC, listed as Form V) was “Tonset 38.5° C.;”, the “Crystallinity (by XRPD)” value ([7]; XRPD method 2) was “Crystalline” and the “Weight loss (by TGA)” value ([7]; at 140° C.) was 5.1% at 140 °C.

In the case of `O=C1CC[C@H](N2C(=O)c3cccc4c(Cc5ccc(CN6CCOCC6)cc5)ccc2c34)C(=O)N1` [Compound 1, (S)-3-(6-(4-(morpholinomethyl)benzyl)-2-oxobenzo[cd]indol-1(2H)-yl)piperidine-2,6-dione], the “extension of survival time” value ([8]; Compound 1 0.01 mg/kg p.o. once per day, p=0.001) was 35.7%, the “Median Survival (Days), ± SEM” value [8, 12] was 19.00 ± 1.41 days and the “Survival time extension (%)” value [8, 12] was 35.7%. The “Aiolos (IKZF3) degradation in PBMC compared to baseline” value [9] was “deep degradation”, the “Ikaros (IKZF1) degradation in PBMC compared to baseline” value [10] was “deep degradation” and the “% Change at Nadir in dFLC” value ([11]; Patient 1, first dose 50 μg oral, no extramedullary disease, ∇ (down)) was “∇ 48.2%”. The “% Change at Nadir in dFLC” value ([11]; Patient 2, first dose 50 μg oral, Multiple Plasmacytomas, ∇ (down)) was “∇ 78.1%”, the “% Change at Nadir in dFLC” value ([11]; Patient 3, first dose 50 μg oral, Lytic Bone Lesions, ∇ (down)) was “∇ 41.0%” and the “% Change at Nadir in dFLC” value ([11]; Patient 4, first dose 50 μg oral, no extramedullary disease, printed with Δ (up)) was “Δ 56.3%”.
